Experimental data reported in ChEMBL document CHEMBL1136687, “Novel 5-aryl-1,3-dihydro-indole-2-thiones. potent, orally active progesterone receptor agonists” (Bioorg Med Chem Lett, 2003).

Columns and labels:
Progesterone receptor [1] = molecular target: T1, Progesterone receptor (Homo sapiens, UniProt P06401); assay: (§1) Effective concentration of progesterone receptor agonist induction of alkaline phosphatase activity in human T47D breast carcinoma cells; format: functional, cell-based
T1 sequence (P06401 whole entry): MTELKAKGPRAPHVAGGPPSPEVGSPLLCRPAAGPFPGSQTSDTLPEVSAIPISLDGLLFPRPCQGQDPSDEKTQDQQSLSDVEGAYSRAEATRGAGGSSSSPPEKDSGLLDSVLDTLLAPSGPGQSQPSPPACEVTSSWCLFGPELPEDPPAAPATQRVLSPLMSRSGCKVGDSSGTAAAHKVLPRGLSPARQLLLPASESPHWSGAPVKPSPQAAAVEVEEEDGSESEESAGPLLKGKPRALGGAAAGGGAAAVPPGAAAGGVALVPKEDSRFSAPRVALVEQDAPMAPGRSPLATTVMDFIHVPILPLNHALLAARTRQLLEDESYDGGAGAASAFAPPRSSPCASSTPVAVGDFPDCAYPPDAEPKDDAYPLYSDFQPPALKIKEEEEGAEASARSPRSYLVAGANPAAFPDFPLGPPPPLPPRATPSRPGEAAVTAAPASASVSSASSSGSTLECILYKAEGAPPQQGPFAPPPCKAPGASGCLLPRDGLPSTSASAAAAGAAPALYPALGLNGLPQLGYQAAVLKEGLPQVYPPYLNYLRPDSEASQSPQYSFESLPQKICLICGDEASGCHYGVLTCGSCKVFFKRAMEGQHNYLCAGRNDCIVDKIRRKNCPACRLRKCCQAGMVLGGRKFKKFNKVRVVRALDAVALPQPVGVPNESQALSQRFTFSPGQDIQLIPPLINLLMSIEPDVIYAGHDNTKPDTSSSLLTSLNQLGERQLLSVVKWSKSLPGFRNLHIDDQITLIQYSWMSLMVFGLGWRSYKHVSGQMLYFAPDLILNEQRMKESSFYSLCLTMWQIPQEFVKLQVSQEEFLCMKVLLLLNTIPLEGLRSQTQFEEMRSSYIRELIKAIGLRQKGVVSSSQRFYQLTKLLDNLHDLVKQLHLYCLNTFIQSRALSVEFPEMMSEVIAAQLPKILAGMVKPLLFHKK

Progesterone receptor [2] = molecular target: T1, Progesterone receptor; assay: as §1; format: functional, cell-based; remark: listed apart in the source
[3] = molecular target: T2, Progesterone receptor (Rattus norvegicus) (UniProt Q63449); assay: Effective progestational dose on oral administration in rat decidualization model; format: functional, organism-based
T2 sequence (whole entry): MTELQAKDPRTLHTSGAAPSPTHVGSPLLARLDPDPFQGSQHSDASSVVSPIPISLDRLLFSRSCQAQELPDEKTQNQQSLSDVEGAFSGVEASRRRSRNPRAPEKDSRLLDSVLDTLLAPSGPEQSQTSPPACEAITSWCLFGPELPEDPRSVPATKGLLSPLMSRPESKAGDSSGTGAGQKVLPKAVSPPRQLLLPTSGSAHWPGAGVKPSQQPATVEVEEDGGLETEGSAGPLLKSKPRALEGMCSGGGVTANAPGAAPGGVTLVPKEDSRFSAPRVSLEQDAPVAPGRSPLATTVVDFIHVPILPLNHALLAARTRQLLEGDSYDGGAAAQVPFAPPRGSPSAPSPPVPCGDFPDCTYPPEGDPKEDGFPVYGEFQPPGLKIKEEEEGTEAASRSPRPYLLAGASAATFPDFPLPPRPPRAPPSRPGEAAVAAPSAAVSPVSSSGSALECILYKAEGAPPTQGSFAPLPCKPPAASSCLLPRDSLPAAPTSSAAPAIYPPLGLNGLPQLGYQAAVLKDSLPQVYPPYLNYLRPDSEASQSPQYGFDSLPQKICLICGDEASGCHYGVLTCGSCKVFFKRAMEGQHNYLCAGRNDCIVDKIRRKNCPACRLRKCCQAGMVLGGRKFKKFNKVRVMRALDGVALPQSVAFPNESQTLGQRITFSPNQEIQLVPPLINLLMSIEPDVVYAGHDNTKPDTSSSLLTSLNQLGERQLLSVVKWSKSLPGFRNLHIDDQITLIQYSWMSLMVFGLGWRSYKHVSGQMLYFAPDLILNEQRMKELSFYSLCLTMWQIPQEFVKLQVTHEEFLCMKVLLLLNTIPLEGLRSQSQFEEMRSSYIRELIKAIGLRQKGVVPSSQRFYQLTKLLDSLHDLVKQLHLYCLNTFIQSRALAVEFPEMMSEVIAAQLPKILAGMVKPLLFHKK

Progesterone receptor [4] = molecular target: T3, Progesterone receptor (Rattus norvegicus, UniProt Q63449); assay: Inhibitory progestational activity on oral administration in uterine C3 model; format: functional, organism-based
T3 sequence (Q63449 whole entry): T2 sequence (whole entry)

Androgen receptor [5] = molecular target: T4, Androgen receptor (Mus musculus, UniProt P19091); assay: Effective concentration against Androgen receptor in mouse fibroblast L929 cells
T4 sequence (P19091 whole entry): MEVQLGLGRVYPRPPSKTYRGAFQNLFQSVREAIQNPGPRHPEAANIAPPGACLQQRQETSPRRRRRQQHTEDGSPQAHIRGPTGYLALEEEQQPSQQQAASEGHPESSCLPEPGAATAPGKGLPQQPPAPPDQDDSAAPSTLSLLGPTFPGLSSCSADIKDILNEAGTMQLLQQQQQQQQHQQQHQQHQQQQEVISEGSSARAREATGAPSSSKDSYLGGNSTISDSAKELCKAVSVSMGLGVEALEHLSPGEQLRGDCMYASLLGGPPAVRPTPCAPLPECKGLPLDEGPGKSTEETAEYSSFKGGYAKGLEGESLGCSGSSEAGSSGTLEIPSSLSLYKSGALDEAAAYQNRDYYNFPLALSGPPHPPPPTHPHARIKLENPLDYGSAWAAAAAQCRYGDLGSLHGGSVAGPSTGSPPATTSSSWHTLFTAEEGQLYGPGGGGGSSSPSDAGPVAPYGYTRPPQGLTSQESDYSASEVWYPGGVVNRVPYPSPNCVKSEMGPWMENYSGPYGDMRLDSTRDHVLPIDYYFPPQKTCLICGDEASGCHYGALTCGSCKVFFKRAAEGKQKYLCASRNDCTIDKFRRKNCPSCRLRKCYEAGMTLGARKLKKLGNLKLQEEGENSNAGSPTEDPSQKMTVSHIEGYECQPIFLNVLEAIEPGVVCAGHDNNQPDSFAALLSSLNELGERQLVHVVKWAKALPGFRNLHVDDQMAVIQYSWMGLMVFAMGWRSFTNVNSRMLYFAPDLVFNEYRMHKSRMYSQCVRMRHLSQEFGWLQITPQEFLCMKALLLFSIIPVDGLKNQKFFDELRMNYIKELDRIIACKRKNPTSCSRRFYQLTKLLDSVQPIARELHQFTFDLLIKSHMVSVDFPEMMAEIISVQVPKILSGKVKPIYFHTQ

Androgen receptor [6] = molecular target: T4, Androgen receptor; assay: Inhibitory activity against Androgen receptor in mouse fibroblast L929 cells; format: cell-based
Glucocorticoid receptor [7] = molecular target: T5, Glucocorticoid receptor (Homo sapiens, UniProt P04150); assay: Effective concentration against glucocorticoid receptor in human lung A549 cells
T5 sequence (P04150 whole entry): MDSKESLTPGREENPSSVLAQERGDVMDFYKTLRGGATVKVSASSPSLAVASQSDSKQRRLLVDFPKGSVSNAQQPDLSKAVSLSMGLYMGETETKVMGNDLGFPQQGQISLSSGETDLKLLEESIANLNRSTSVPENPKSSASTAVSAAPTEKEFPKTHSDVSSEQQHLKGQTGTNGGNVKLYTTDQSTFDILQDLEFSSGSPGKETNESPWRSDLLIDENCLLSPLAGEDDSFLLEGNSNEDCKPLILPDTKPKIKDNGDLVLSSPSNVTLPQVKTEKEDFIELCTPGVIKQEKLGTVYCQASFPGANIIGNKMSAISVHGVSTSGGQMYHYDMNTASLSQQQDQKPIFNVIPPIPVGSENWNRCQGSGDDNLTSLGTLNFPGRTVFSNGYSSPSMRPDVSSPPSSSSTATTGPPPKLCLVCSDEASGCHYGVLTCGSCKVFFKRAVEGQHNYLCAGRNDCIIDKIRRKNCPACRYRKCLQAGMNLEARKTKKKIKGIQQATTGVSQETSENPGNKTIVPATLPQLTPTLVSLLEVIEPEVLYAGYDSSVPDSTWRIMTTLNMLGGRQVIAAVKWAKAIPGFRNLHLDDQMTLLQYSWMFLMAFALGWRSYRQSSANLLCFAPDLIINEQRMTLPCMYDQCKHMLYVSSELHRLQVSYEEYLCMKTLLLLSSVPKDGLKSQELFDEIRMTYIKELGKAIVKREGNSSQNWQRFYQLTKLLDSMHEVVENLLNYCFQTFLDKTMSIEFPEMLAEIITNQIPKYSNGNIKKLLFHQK

Glucocorticoid receptor [8] = molecular target: T5, Glucocorticoid receptor; assay: Inhibitory activity against glucocorticoid receptor in human lung A549 cells
Progesterone receptor [9] = molecular target: T1, Progesterone receptor; assay: Inhibition of 3 nM [3H]R5020 binding to progesterone receptor in human T47D cells; format: functional, cell-based

Row | Compound | EC50 (Progesterone receptor [1]) [nM] | other results
1 | Fc1ccc(-c2ccc3c(c2)C2(CCCCC2)C(S)=N3)cc1Cl | 4.3 | 
2 | SC1=Nc2ccc(-c3cccc(-c4ccccc4)c3)cc2C12CCCCC2 | 71.4 | 
3 | N#Cc1ccc(-c2ccc3c(c2)C2(CCCCC2)C(S)=N3)cc1F | 14.8 | 
4 | CCCc1cc(C#N)sc1-c1ccc2c(c1)C1(CCCCC1)C(S)=N2 | 7.7 | 
5 | N#Cc1cc(-c2ccc3c(c2)C2(CCCCC2)C(=S)N3)cs1 | 0.3 | 
6 | S=C1Nc2ccc(-c3ccc(Cl)cc3)cc2C12CCCCC2 | 2000 | 
7 | Fc1ccc(-c2ccc3c(c2)C2(CCCCC2)C(S)=N3)cc1F | 5.4 | 
8 | S=C1Nc2ccc(-c3cccc(Cl)c3)cc2C12CCC2 | 28.7 | 
9 | CC1(C)C(=S)Nc2ccc(-c3cccc(Cl)c3)cc21 | 5 | 
10 | CN1C(=S)C2(CCCCC2)c2cc(-c3cccc(Cl)c3)ccc21 | > 3000 | EC50 (Progesterone receptor [2]): > 3000 nM
11 | Cc1c(S)[nH]c2ccc(-c3cccc(Cl)c3)cc12 | > 3000 | 
12 | N#Cc1ccc(-c2ccc3c(c2)C2(CCCCC2)C(=S)N3)s1 | 1 | 
13 | Fc1cc(F)cc(-c2ccc3c(c2)C2(CCCCC2)C(=S)N3)c1 | 0.8 | 
14 | N#Cc1ccc(F)c(-c2ccc3c(c2)C2(CCCCC2)C(=S)N3)c1 | 1.4 | 
15 | S=C1Nc2ccc(-c3ccc(Cl)s3)cc2C12CCCCC2 | 1.4 | 
16 | S=C1Nc2ccc(-c3cccc(Cl)c3)cc2C12CCCCC2 | 1.6 | 
17 | N#Cc1cccc(-c2ccc3c(c2)C2(CCCCC2)C(=S)N3)c1 | 2 | ED50 [3]: 0.4 mg/kg; IC50 (Progesterone receptor [4]): 0.3 mg/kg
18 | SC1=Nc2ccc(-c3cccc(Cl)c3)cc2C12CCCCC2 |  | ED50 [3]: > 3 mg/kg; IC50 (Progesterone receptor [4]): 0.37 mg/kg

Row | Compound | EC50 (Progesterone receptor [1]) [nM] | other results
19 | N#Cc1cc(F)cc(-c2ccc3c(c2)C2(CCCCC2)C(S)=N3)c1 | 0.36 | EC50 (Androgen receptor [5]): > 10000 nM; IC50 (Androgen receptor [6]): > 10000 nM; EC50 (Glucocorticoid receptor [7]): > 10000 nM; IC50 (Glucocorticoid receptor [8]): 35 nM; IC50 (Progesterone receptor [9]): 15.9 nM; ED50 [3]: 0.1 mg/kg; IC50 (Progesterone receptor [4]): 0.025 mg/kg
20 | Fc1cccc(-c2ccc3c(c2)C2(CCCCC2)C(S)=N3)c1 | 1.6 | 
21 | Oc1cccc(-c2ccc3c(c2)C2(CCCCC2)C(S)=N3)c1 | 2.5 | 
22 | COc1cc(F)cc(-c2ccc3c(c2)C2(CCCCC2)C(=S)N3)c1 | 2.6 | 
23 | S=C1Nc2ccc(-c3cccc(Cl)c3)cc2C12CCCC2 | 9.8 | 
24 | CCCCc1cc(C#N)sc1-c1ccc2c(c1)C1(CCCCC1)C(S)=N2 | 23.5 | 
25 | Cc1cc(C#N)sc1-c1ccc2c(c1)C1(CCCCC1)C(=S)N2 | 0.5 | 
26 | Fc1cc(Cl)cc(-c2ccc3c(c2)C2(CCCCC2)C(=S)N3)c1 | 0.5 | 
27 | Cc1cc(C#N)sc1-c1ccc2c(c1)C1(CCCCC1)C(S)=N2 |  | ED50 [3]: 1 mg/kg
28 | N#Cc1ccc(-c2ccc3c(c2)C2(CCCCC2)C(S)=N3)s1 |  | ED50 [3]: 0.1 mg/kg; IC50 (Progesterone receptor [4]): 0.03 mg/kg
29 | CCC1(CC)C(=S)Nc2ccc(-c3cccc(Cl)c3)cc21 | 200 | 
30 | CC(=O)O[C@]1(C(C)=O)CC[C@H]2[C@@H]3C[C@H](C)C4=CC(=O)CC[C@]4(C)[C@H]3CC[C@@]21C [MEDROXYPROGESTERONE ACETATE] |  | IC50 (Progesterone receptor [4]): 0.026 mg/kg
31 | N#Cc1ccc(-c2ccc3c(c2)C2(CCCCC2)C(S)=N3)o1 | 1.9 | ED50 [3]: 1 mg/kg
32 | S=C1Nc2ccc(-c3ccccc3Cl)cc2C12CCCCC2 | 5.3 | 
33 | N#Cc1cc(-c2ccc3c(c2)C2(CCCCC2)C(=S)N3)co1 | 1.9 | 
34 | CC1(Cc2ccccc2)C(=S)Nc2ccc(-c3cccc(Cl)c3)cc21 (stereo not drawn) | 1200 | 
35 | N#Cc1cc(-c2ccc3c(c2)C2(CCCCC2)C(=S)N3)ccc1F | 4.2 | 
